Laboratory results taken from patent US10899932B2, “Non-amphoteric, quaternisable and water-soluble polymers for modifying the surface charge of solid particles” (priority 2014, dated 2021).

Experiment: Zeta potential measurement of aqueous suspensions of powders (Coulter DELSA 440 SX)
Assay type: physicochemical
Conditions: aqueous suspension, pH 4
Description: The zeta potential can be determined directly from the direction and velocity of migration of the dispersed particles in an electrical field, on the basis of the following relation:
[formula] • ζ=zeta potential (in mV) • ε=dielectric constant of the dispersion medium • v=electrophoretic migration velocity (in cm/s) • η=viscosity of the dispersion medium (poise, 1 poise=0.1 Pa·s) • E=field strength (in […]) • f=numerical factor (friction factor), dependent on the shape of the particles, their conductivity, and the size of the particles in comparison to the thickness of the diffuse double layer
The migration velocity here is measured, depending on the size of the particles under investigation, either by means of observation through a light microscope or, particularly in the case of relatively small particles, by means of laser correlation spectroscopy.
The zeta potential of the aqueous suspensions of boron nitride, silicon carbide, diamond, deltamethrin and azoxystrobin powders, all produced in analogy to the example above, was determined as follows. The measurement took place with a Coulter DELSA 440 SX instrument. […] This reversal of the original surface charge was verified for the inventive particles by the experimental measurements below.

Row | Compound | Zeta potential
1 | CC1(C)[C@H](C(=O)O[C@H](C#N)c2cccc(Oc3ccccc3)c2)[C@@H]1C=C(Br)Br [CE7, Deltamethrin] | −32 mV
2 | CO/C=C(/C(=O)OC)c1ccccc1Oc1cc(Oc2ccccc2C#N)ncn1 [CE8, Azoxystrobin] | −36 mV
